# Reference: patent US7612096B2, “Methods for treatment, modification and management of radiculopathy using 1-oxo-2-(2,6-dioxopiperidin-3yl)-4-aminoisoindoline” (Celgene Corporation, priority 2004, dated 2009)
# pIC50: −log10 of the molar value.
# Key:
# TNF-α production [1] = experiment: Inhibition of TNF-α production following LPS-stimulation of human whole blood; format: cell-based; conditions: LPS-stimulated, read-out: IC50 for inhibiting production of TNF-α following LPS-stimulation of human whole blood
# Source text: (§1) Inhibitions of TNF-α production following LPS-stimulation of human PBMC and human whole blood by 3-(4-amino-1-oxo-1,3-dihydro-isoindol-2-yl)-piperidine-2,6-dione, 4-(amino)-2-(2,6-dioxo-(3-piperidyl))-isoindoline-1,3-dione and thalidomide were investigated in vitro.
# IL6 production = experiment: LPS-stimulated production of IL6 by PBMC; format: cell-based
# IL1β production = experiment: LPS-stimulated production of IL1β by PBMC; format: cell-based
# IL10 production = experiment: LPS-stimulated production of IL10 by PBMC; format: cell-based
# CRPS patients = experiment: Clinical study in patients with upper extremity CRPS; format: in vivo, human; conditions: 10 mg continuous oral daily dose
# Method: Immunomodulatory compounds such as 4-(amino)-2-(2,6-dioxo(3-piperidyl))-isoindoline-1,3-dione and 3-(4-amino-1-oxo-1,3-dihydro-isoindol-2-yl)-piperidine-2,6-dione are administered in an amount of 0.1 to 25 mg per day to patients with pain syndromes for three to six months. A baseline evaluation is performed for the effect of the drug treatment on pain intensity, impact of pain on activities of daily living, and consumption of other pain medications.
# In a specific embodiment, clinical studies are performed in pain patients who have upper extremity CRPS that has not responded to conventional physical therapy and has been present for at least one year. In the early course of their diseases, patients have clear evidence of autonomic dysfunction with formal autonomic testing (Quantitative sudomotor axon reflex test (QSART), resting sweat output, and thermography). […] Responses are assessed using standard pain scales, e.g., Numeric Pain Scale Assessment (VAS) for pain, quality of life using the McGill Index and objective signs in clinical examination such as a visible reduction of swelling, sweating, discolorations in skin color, temperature changes, changes in skin, hair and nail growth, and fine motor movements. […]
# Beagle dogs = experiment: Cardiovascular and respiratory function in anesthetized dogs; format: in vivo, dog; conditions: for cardiovascular and respiratory changes compared to the vehicle control group: anesthetized Beagle dogs, 2, 10 and 20 mg/kg, infusion through the jugular vein, all doses; for duration of the arterial blood pressure increase / change in arterial blood pressure / deviations in femoral blood flow, respiratory parameters, and Qtc interval: anesthetized Beagle dogs; for duration of the arterial blood pressure increase / change in arterial blood pressure: low dose; for change in arterial blood pressure: i.v. infusion, statistically significant, not seen at higher doses; for deviations in femoral blood flow, respiratory parameters, and Qtc interval: common to both control and treated groups
# Source text: The effects of 3-(4-amino-1-oxo-1,3-dihydro-isoindol-2-yl)-piperidine-2,6-dione and 4-(amino)-2-(2,6-dioxo-(3-piperidyl))-isoindoline-1,3-dione on cardiovascular and respiratory function were investigated in anesthetized dogs. Two groups of Beagle dogs (2/sex/group) were used. One group received three doses of vehicle only and the other receives three ascending doses of 3-(4-amino-1-oxo-1,3-dihydro-isoindol-2-yl)-piperidine-2,6-dione or 4-(amino)-2-(2,6-dioxo-(3-piperidyl))-isoindoline-1,3-dione (2, 10, and 20 mg/kg). In all cases, doses of 3-(4-amino-1-oxo-1,3-dihydro-isoindol-2-yl)-piperidine-2,6-dione, 4-(amino)-2-(2,6-dioxo-(3-piperidyl))-isoindoline-1,3-dione or vehicle were successively administered via infusion through the jugular vein separated by intervals of at least 30 minutes.
# TNF-α production [2] = experiment: Inhibition of TNF-α production following LPS-stimulation of human PBMC; format: cell-based; conditions: for pIC50: human PBMC, LPS-stimulated, read-out: IC50 for inhibiting production of TNF-α following LPS-stimulation of PBMC
# Source text: as §1
pIC50 (TNF-α production [1]),pIC50 (TNF-α production [2]),Structure (SMILES),effect on LPS-stimulated production of IL6 by PBMC (IL6 production),effect on LPS-stimulated production of IL1β by PBMC (IL1β production),effect on production of the anti-inflammatory cytokine IL10 (IL10 production),tolerability (CRPS patients),cardiovascular and respiratory changes compared to the vehicle control group (Beagle dogs),duration of the arterial blood pressure increase (Beagle dogs),change in arterial blood pressure (Beagle dogs),"deviations in femoral blood flow, respiratory parameters, and Qtc interval (Beagle dogs)",effect on LPS-stimulated production of TNF-α by PBMC (TNF-α production [2])
~6.32,~7.00,"Nc1cccc2c1CN(C1CCC(=O)NC1=O)C2=O (stereo not drawn) [3-(4-amino-1-oxo-1,3-dihydro-isoindol-2-yl)-piperidine-2,6-dione]",dose-dependent inhibition,dose-dependent inhibition,increased production,well-tolerated,minimal,approximately 15 minutes,small increase,not considered treatment-related,dose-dependent inhibition
~7.60,~7.62,"Nc1cccc2c1C(=O)N(C1CCC(=O)NC1=O)C2=O (stereo not drawn) [4-(Amino)-2-(2,6-dioxo(3-piperidyl))-isoindoline-1,3-dione]",dose-dependent inhibition,dose-dependent inhibition,increased production,,minimal,approximately 15 minutes,small increase,not considered treatment-related,dose-dependent inhibition
